Test results reported in patent publication US12637467B2, “Inhibitor of BTK and mutants thereof” (Newave Pharmaceutical Inc., priority 2019, dated 2026).
Entries after “also recorded” stand apart in the source; their conditions may differ.

Assays:
WT BTK [1] = target: T1, WT BTK (Homo sapiens, UniProt Q06187); test: In vitro dialysis assay (irreversibility assay), WT BTK; assay type: biochemical; settings: for Conclusion (WT BTK): reversible or irreversible inhibition after 24 hr dialysis
Method: (§1) The compound-enzyme complex was dialyzed against the same buffer supplemented with 40 mM ATP for 24 hr. Cumulative dialysis factor >160,000×. After dialysis, the BTK activity was measured in the presence 40 mM ATP and 1 mM substrate peptide and compared to that in non-dialyzed samples. Assay buffer: 100 mM HEPES, pH7.5; 0.1% BSA, 0.01% Triton-X 100; 5 mM MgCl2; 1 mM DTT.

C481S BTK [2] = target: T2, C481S BTK (Homo sapiens, UniProt Q06187, C481S); test: Reversibility of binding to C481S BTK enzyme; assay type: biochemical; settings: cysteine not available for covalent binding
T2 sequence (Q06187 whole entry C481S): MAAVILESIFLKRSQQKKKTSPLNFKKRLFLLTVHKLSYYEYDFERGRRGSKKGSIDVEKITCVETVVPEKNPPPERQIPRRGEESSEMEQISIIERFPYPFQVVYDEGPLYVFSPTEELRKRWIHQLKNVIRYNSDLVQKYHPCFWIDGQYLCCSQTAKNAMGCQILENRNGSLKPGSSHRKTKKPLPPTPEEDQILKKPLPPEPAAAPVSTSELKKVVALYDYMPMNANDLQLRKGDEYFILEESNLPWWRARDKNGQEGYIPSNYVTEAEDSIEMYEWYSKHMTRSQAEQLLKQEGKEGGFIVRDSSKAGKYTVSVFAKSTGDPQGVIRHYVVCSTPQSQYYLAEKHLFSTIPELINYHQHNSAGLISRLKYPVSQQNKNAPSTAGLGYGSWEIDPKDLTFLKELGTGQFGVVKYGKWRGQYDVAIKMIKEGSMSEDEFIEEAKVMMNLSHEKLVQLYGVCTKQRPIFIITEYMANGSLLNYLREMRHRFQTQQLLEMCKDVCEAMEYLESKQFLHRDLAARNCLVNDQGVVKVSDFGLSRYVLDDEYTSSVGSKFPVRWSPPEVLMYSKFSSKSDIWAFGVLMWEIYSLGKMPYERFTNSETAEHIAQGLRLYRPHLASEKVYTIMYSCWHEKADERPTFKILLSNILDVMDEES
Method: as §1

C481S BTK [3] = target: T2, C481S BTK; test: Caliper-based kinase assay, C481S BTK; assay type: biochemical; settings: 0.5 nM enzyme, 16 μM ATP, 3 h at room temperature; read-out: C481S BTK IC50 (nM) (reversible inhibition)
Method: (§2) The reaction was then terminated with EDTA, final concentration 20 mM and the phosphorylated reaction product was quantified on a Caliper Desktop Profiler (Caliper LabChip 3000).

WT BTK [4] = target: T1, WT BTK; test: Caliper-based kinase assay, WT BTK; assay type: biochemical; settings: 0.5 nM enzyme, 16 μM ATP, 3 h at room temperature; read-out: WT BTK IC50 (nM) (irreversible inhibition)
Method: as §2

[5] = rats, treatment for longer than 7 days; cited from earlier work
[6] = formulations containing GDC-0853, Phase I clinical trials; cited from earlier work

T1 sequence (Q06187 whole entry): as the sequence (Q06187 whole entry C481S) above, with S481C counted along it

Mode of binding to C481S BTK (C481S BTK [2]) | Recovery after 24 h dialysis (WT BTK [1]; 0.003 mM compound pre-incubated with 2 nM BTK for 2 hr, dialyzed 24 hr against buffer with 40 mM ATP, BTK activity vs non-dialyzed samples) [%] | IC50 (C481S BTK [3]) [nM] | IC50 (WT BTK [4]) [nM] | Structure (SMILES) | Conclusion (WT BTK) (WT BTK [1]) | pancreatic toxicity [5] | tolerability [6]
reversibly bind |  |  |  | C=CC(=O)Nc1cc(Nc2nc(-c3ccnc(N4CCn5c(cc6c5CC(C)(C)C6)C4=O)c3CO)cn(C)c2=O)ccc1N1CCN(C)CC1 [Example 2, N-(5-((6-(2-(7,7-dimethyl-1-oxo-1,3,4,6,7,8-hexahydro-2H-cyclopenta[4,5]pyrrolo[1,2-a]pyrazin-2-yl)-3-(hydroxymethyl)pyridin-4-yl)-4-methyl-3-oxo-3,4-dihydropyrazin-2-yl)amino)-2-(4-methylpiperazin-1-yl)phenyl)acrylamide] | irreversible inhibitors; also recorded: Irreversible/covalent inhibition |  | 
 | ~1 | 0.46 | 0.073 | C=CC(=O)Nc1cc(Nc2nc(-c3ccnc(N4CCc5c(sc6c5CC(C)(C)C6)C4=O)c3CO)cn(C)c2=O)ccc1N1CCN(C2COC2)C[C@@H]1C [Example 34, N-(5-[[6-(2-[4,4-dimethyl-9-oxo-7-thia-10-azatricyclo[6.4.0.0^[2,6]]dodeca-1(8),2(6)-dien-10-yl]-3-(hydroxymethyl)pyridin-4-yl)-4-methyl-3-oxopyrazin-2-yl]amino]-2-[(2S)-2-methyl-4-(oxetan-3-yl)piperazin-1-yl]phenyl)prop-2-enamide] | Irreversible/covalent inhibition |  | 
 |  |  |  | C[C@H]1CN(C2COC2)CCN1c1ccc(Nc2cc(-c3ccnc(N4CCn5c(cc6c5CC(C)(C)C6)C4=O)c3CO)cn(C)c2=O)nc1 [GDC-0853, reference compound] | reversible WT BTK inhibitor | leads to pancreatic toxicity | well-tolerated
